Source: the NIST ThermoML archive (doi:10.1007/s10765-005-5567-5)

Experiment: mn = molality of the nth substance listed, in mol/kg
Conditions: Liquid; for thermal conductivity: Coaxial cylinder method; for viscosity: Capillary tube (Ostwald / Ubbelohde) method

O=S(=O)([O-])[O-].[K+].[K+] [potassium sulfate] + O
Conditions	thermal conductivity [W/m/K]	viscosity [mPa·s]
333.3 K, 30000 kPa, m1 = 0.782	0.655	–
333.6 K, 100 kPa, m1 = 0.239	0.649	–
333.6 K, 10000 kPa, m1 = 0.239	0.654	–
333.6 K, 30000 kPa, m1 = 0.239	0.664	–
333.7 K, 100 kPa, m1 = 0.499	0.645	–
333.7 K, 10000 kPa, m1 = 0.499	0.65	–
333.7 K, 30000 kPa, m1 = 0.499	0.66	–
348.15 K, 0.1 kPa, m1 = 0.407	–	0.4271
348.15 K, 10 kPa, m1 = 0.407	–	0.4316
348.15 K, 20 kPa, m1 = 0.407	–	0.4354
348.15 K, 30 kPa, m1 = 0.407	–	0.438
348.25 K, 0.1 kPa, m1 = 0.305	–	0.4147
348.25 K, 10 kPa, m1 = 0.305	–	0.4182
348.25 K, 20 kPa, m1 = 0.305	–	0.4217
348.25 K, 30 kPa, m1 = 0.305	–	0.4248
348.45 K, 0.1 kPa, m1 = 0.0658	–	0.3842
348.45 K, 10 kPa, m1 = 0.0658	–	0.3869
348.45 K, 20 kPa, m1 = 0.0658	–	0.3912
348.45 K, 30 kPa, m1 = 0.0658	–	0.3963
348.95 K, 0.1 kPa, m1 = 0.2055	–	0.3988
348.95 K, 10 kPa, m1 = 0.2055	–	0.402
348.95 K, 20 kPa, m1 = 0.2055	–	0.4048
348.95 K, 30 kPa, m1 = 0.2055	–	0.4076
352.9 K, 100 kPa, m1 = 0.499	0.66	–
352.9 K, 100 kPa, m1 = 0.782	0.654	–
352.9 K, 10000 kPa, m1 = 0.499	0.665	–
352.9 K, 10000 kPa, m1 = 0.782	0.659	–
352.9 K, 30000 kPa, m1 = 0.499	0.675	–
352.9 K, 30000 kPa, m1 = 0.782	0.67	–
353.3 K, 100 kPa, m1 = 0.239	0.665	–
353.3 K, 10000 kPa, m1 = 0.239	0.67	–
353.3 K, 30000 kPa, m1 = 0.239	0.679	–
363 K, 100 kPa, m1 = 0.499	0.666	–
363 K, 10000 kPa, m1 = 0.499	0.671	–
363 K, 30000 kPa, m1 = 0.499	0.68	–
363.4 K, 100 kPa, m1 = 0.239	0.67	–
363.4 K, 100 kPa, m1 = 0.782	0.66	–
363.4 K, 10000 kPa, m1 = 0.239	0.675	–
363.4 K, 10000 kPa, m1 = 0.782	0.665	–
363.4 K, 30000 kPa, m1 = 0.239	0.685	–
363.4 K, 30000 kPa, m1 = 0.782	0.675	–
365.45 K, 10 kPa, m1 = 0.2055	–	0.3303
365.45 K, 20 kPa, m1 = 0.2055	–	0.3339
365.45 K, 30 kPa, m1 = 0.2055	–	0.3363
365.95 K, 10 kPa, m1 = 0.305	–	0.3396
365.95 K, 20 kPa, m1 = 0.305	–	0.3421
365.95 K, 30 kPa, m1 = 0.305	–	0.346
372.55 K, 10 kPa, m1 = 0.407	–	0.3265
372.55 K, 20 kPa, m1 = 0.407	–	0.33
372.55 K, 30 kPa, m1 = 0.407	–	0.3329
376.65 K, 10 kPa, m1 = 0.0658	–	0.2805
376.65 K, 20 kPa, m1 = 0.0658	–	0.2846
376.65 K, 30 kPa, m1 = 0.0658	–	0.2884
393.1 K, 10000 kPa, m1 = 0.499	0.679	–
393.1 K, 10000 kPa, m1 = 0.782	0.672	–
393.1 K, 30000 kPa, m1 = 0.499	0.69	–
393.1 K, 30000 kPa, m1 = 0.782	0.685	–
393.5 K, 10000 kPa, m1 = 0.239	0.684	–
393.5 K, 30000 kPa, m1 = 0.239	0.695	–
396.35 K, 10 kPa, m1 = 0.407	–	0.2605
396.35 K, 20 kPa, m1 = 0.407	–	0.2628
396.35 K, 30 kPa, m1 = 0.407	–	0.2667
396.65 K, 10 kPa, m1 = 0.2055	–	0.2435
396.65 K, 20 kPa, m1 = 0.2055	–	0.2464
396.65 K, 30 kPa, m1 = 0.2055	–	0.2492
397.25 K, 10 kPa, m1 = 0.305	–	0.2503
